Data on 23 compounds can be found in US20230059136A1, “THE COMPOUNDS AND COMPOSITIONS FOR TREATING CONDITIONS ASSOCIATED WITH NLRP ACTIVITY” (Novartis AG, priority 2018, published 2023).

The assay deals with IL-1β production in PMA-differentiated THP-1 cells. The assay can be described thus: IL-1β production in PMA-differentiated THP-1 cells stimulated with gramicidin (hTHP-1 assay containing 2% fetal bovine serum). Format: cell-based, human. The settings on record: 2% fetal bovine serum, read-out: hTHP-1 IC50 (Average IC50 of compounds in hTHP-1 assay). The method in brief: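 IL-1β release was read by HTRF on supernatants of 50,000 PMA-primed (20 ng/ml, 16-18 h) THP-1 cells/well in 2% FBS medium. Cells saw compound for 1 h (11-point titration from 100 μM, 0.37% DMSO) before a 2 h gramicidin (5 μM) challenge.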

The mark [1] stands for this setting: Homo sapiens, THP-1, Table B1, class symbols.
The mark [2] stands for this setting: Homo sapiens, THP-1, Table B1, cells printed as numeric bound.

A word on the IC50: it is the concentration at which inhibition is half-maximal.

The structures appear in SMILES notation. Read-outs that look alike come from different tables or passages of the source. Where only a bound is given, the exact number is not on record here.

With `CCc1c2c(cc(C(C)C)c1CC(=O)N=S(N)(=O)c1sc(C(C)(C)O)cc1F)COC2` (single isomer, unassigned) [Example 299, (S) or (R)-N-(amino (3-fluoro-5-(2-hydroxypropan-2-yl)thiophen-2-yl)(oxo)-λ^6-sulfaneylidene)-2-(4-ethyl-6-isopropyl-1,3-dihydroisobenzofuran-5-yl)acetamide], under “Table B1, class symbols”, the IC50 was in the range of 5 to 30 µM.
Still for that read-out and setting: for `CCc1c2c(cc(C(C)C)c1CC(=O)N=S(N)(=O)c1sc(C(C)(C)O)cc1F)COC2` (single isomer, unassigned) [Example 300, (R) or (S)-N-(amino (3-fluoro-5-(2-hydroxypropan-2-yl)thiophen-2-yl)(oxo)-λ^6-sulfaneylidene)-2-(4-ethyl-6-isopropyl-1,3-dihydroisobenzofuran-5-yl)acetamide] the value was 0.2 to 1 µM.
For the compound `CC(C)c1cc2c(c(C(C)C)c1CC(=O)N=S(N)(=O)c1ccc(C(C)(C)O)cc1)COC2` (single isomer, unassigned) [Example 301, (R) or (S)-N-(amino(4-(2-hydroxypropan-2-yl)phenyl)(oxo)-λ^6-sulfaneylidene)-2-(4,6-diisopropyl-1,3-dihydroisobenzofuran-5-yl)acetamide], under setting [1], the IC50 fell in the range of 1 to 5 µM.
As for `CC(C)c1cc2c(c(C(C)C)c1CC(=O)N=S(N)(=O)c1ccc(C(C)(C)O)cc1)COC2` (single isomer, unassigned) [Example 302, (S) or (R)-N-(amino(4-(2-hydroxypropan-2-yl)phenyl)(oxo)-λ^6-sulfaneylidene)-2-(4,6-diisopropyl-1,3-dihydroisobenzofuran-5-yl)acetamide], the concentration for half-maximal inhibition (IC50) under setting [2] is more than 30 µM.
Regarding `CC(C)c1cc2c(c(C(C)C)c1CC(=O)N=S(N)(=O)c1cccc(C(C)(C)O)c1)COC2` (single isomer, unassigned) [Example 303, (R) or (S)-N-(amino(3-(2-hydroxypropan-2-yl)phenyl)(oxo)-λ^6-sulfaneylidene)-2-(4,6-diisopropyl-1,3-dihydroisobenzofuran-5-yl)acetamide], the IC50 under setting [1] fell in the range of 1 to 5 µM.
Take `CC(C)c1cc2c(c(C(C)C)c1CC(=O)N=S(N)(=O)c1cccc(C(C)(C)O)c1)COC2` (single isomer, unassigned) [Example 304, (S) or (R)-N-(amino(3-(2-hydroxypropan-2-yl)phenyl)(oxo)-λ^6-sulfaneylidene)-2-(4,6-diisopropyl-1,3-dihydroisobenzofuran-5-yl)acetamide]: the IC50 under setting [2] is more than 30 µM.
Regarding `CC(C)c1cc(C(F)F)nc(C(C)C)c1CC(=O)N=S(N)(=O)c1sc(CN(C)C)cc1F` (single isomer, unassigned) [Example 305, (S) or (R)-N-(amino(5-((dimethylamino)methyl)-3-fluorothiophen-2-yl) (oxo)-λ^6-sulfaneylidene)-2-(6-(difluoromethyl)-2,4-diisopropylpyridin-3-yl)acetamide], the IC50 under setting [2] is more than 30 µM.
Consider `CC(C)c1cc(C(F)F)nc(C(C)C)c1CC(=O)N=S(N)(=O)c1sc(CN(C)C)cc1F` (single isomer, unassigned) [Example 306, (R) or (S)-N-(amino(5-((dimethylamino)methyl)-3-fluorothiophen-2-yl)(oxo)-λ^6-sulfaneylidene)-2-(6-(difluoromethyl)-2,4-diisopropylpyridin-3-yl)acetamide], for which, under setting [1], the IC50 fell in the range of 0.2 to 1 µM.
For `CC(C)c1cc2c(c(C(C)C)c1CC(=O)N=S(N)(=O)c1sc(CN(C)C)cc1F)COC2` (single isomer, unassigned) [Example 307, (R) or (S)-N-(amino(5-((dimethylamino)methyl)-3-fluorothiophen-2-yl)(oxo)-λ^6-sulfaneylidene)-2-(4,6-diisopropyl-1,3-dihydroisobenzofuran-5-yl)acetamide], the IC50 under setting [1] was in the range of 0.2 to 1 µM.
Take `CC(C)c1cc2c(c(C(C)C)c1CC(=O)N=S(N)(=O)c1sc(CN(C)C)cc1F)COC2` (single isomer, unassigned) [Example 308, (S) or (R)-N-(amino(5-((dimethylamino)methyl)-3-fluorothiophen-2-yl)(oxo)-λ^6-sulfaneylidene)-2-(4,6-diisopropyl-1,3-dihydroisobenzofuran-5-yl)acetamide]: the IC50 under setting [2] is more than 30 µM.
With `CC(C)c1cc2c(c(C(C)C)c1CC(=O)N=S(N)(=O)c1cnn3c1OCCC3)COC2` (single isomer, unassigned) [Example 309, (S) or (R)-N-(amino (6,7-dihydro-5H-pyrazolo[5,1-b][1,3]oxazin-3-yl)(oxo)-λ^6-sulfaneylidene)-2-(4,6-diisopropyl-1,3-dihydroisobenzofuran-5-yl)acetamide], under setting [2], the IC50 was more than 30 µM.
Regarding `CC(C)c1cc2c(c(C(C)C)c1CC(=O)N=S(N)(=O)c1cnn3c1OCCC3)COC2` (single isomer, unassigned) [Example 310, (R) or (S)-N-(amino (6,7-dihydro-5H-pyrazolo[5,1-b][1,3]oxazin-3-yl)(oxo)-λ^6-sulfaneylidene)-2-(4,6-diisopropyl-1,3-dihydroisobenzofuran-5-yl)acetamide], under setting [1], the IC50 lay in the range of 1 to 5 µM.
As for `CC(C)c1ccc(F)c(C(C)C)c1CC(=O)N=S(N)(=O)c1cnn2c1OCCC2` (single isomer, unassigned) [Example 311, (S) or (R)-N-(amino (6,7-dihydro-5H-pyrazolo[5,1-b][1,3]oxazin-3-yl)(oxo)-λ^6-sulfaneylidene)-2-(3-fluoro-2,6-diisopropylphenyl) acetamide], the IC50 (Table B1, class symbols) lay within 5 to 30 µM.
On to `CC(C)c1ccc(F)c(C(C)C)c1CC(=O)N=S(N)(=O)c1cnn2c1OCCC2` (single isomer, unassigned) [Example 312, (R) or (S)-N-(amino (6,7-dihydro-5H-pyrazolo[5,1-b][1,3]oxazin-3-yl)(oxo)-λ^6-sulfaneylidene)-2-(3-fluoro-2,6-diisopropylphenyl) acetamide], for which the IC50 (Table B1, class symbols) is 0.2 to 1 µM.
In the case of `CC(C)(O)c1ncc(S(N)(=O)=NC(=O)Cc2cc3c(c4c2CCC4)CCC3)s1` (single isomer, unassigned) [Example 313, (R) or (S)-N-(amino(2-(2-hydroxypropan-2-yl)thiazol-5-yl)(oxo)-λ^6-sulfaneylidene)-2-(1,2,3,6,7,8-hexahydro-as-indacen-4-yl)acetamide], the IC50 under setting [1] lay in the range of 5 to 30 µM.
`CC(C)(O)c1ncc(S(N)(=O)=NC(=O)Cc2cc3c(c4c2CCC4)CCC3)s1` (single isomer, unassigned) [Example 314, (S) or (R)-N-(amino(2-(2-hydroxypropan-2-yl)thiazol-5-yl)(oxo)-λ^6-sulfaneylidene)-2-(1,2,3,6,7,8-hexahydro-as-indacen-4-yl)acetamide]: the IC50 under setting [2] was more than 30 µM.
With `CC(C)c1cnc(F)c(C(C)C)c1CC(=O)N=S(N)(=O)c1cnc(C(C)(C)O)s1` (single isomer, unassigned) [Example 315, (R) or (S)-N-(amino(2-(2-hydroxypropan-2-yl)thiazol-5-yl)(oxo)-λ^6-sulfaneylidene)-2-(2-fluoro-3,5-diisopropylpyridin-4-yl)acetamide], the IC50 under setting [1] was 5 to 30 µM.
On to `CC(C)c1cnc(F)c(C(C)C)c1CC(=O)N=S(N)(=O)c1cnc(C(C)(C)O)s1` (single isomer, unassigned) [Example 316, (S) or (R)-N-(amino(2-(2-hydroxypropan-2-yl)thiazol-5-yl)(oxo)-λ^6-sulfaneylidene)-2-(2-fluoro-3,5-diisopropylpyridin-4-yl)acetamide], for which the IC50 under setting [2] is more than 30 µM.
Regarding `CC(C)c1cc2c(c(C(C)C)c1CC(=O)N=S(N)(=O)c1cnc(C(C)(C)O)s1)COC2=O` (single isomer, unassigned) [Example 317, (R) or (S)-N-(amino(2-(2-hydroxypropan-2-yl)thiazol-5-yl)(oxo)-λ^6-sulfaneylidene)-2-(4,6-diisopropyl-1-oxo-1,3-dihydroisobenzofuran-5-yl)acetamide], the IC50 under setting [1] lay within 1 to 5 µM.
As to `CC(C)c1cc2c(c(C(C)C)c1CC(=O)N=S(N)(=O)c1cnc(C(C)(C)O)s1)COC2=O` (single isomer, unassigned) [Example 318, (S) or (R)-N-(amino(2-(2-hydroxypropan-2-yl)thiazol-5-yl)(oxo)-λ^6-sulfaneylidene)-2-(4,6-diisopropyl-1-oxo-1,3-dihydroisobenzofuran-5-yl)acetamide], the IC50 under setting [2] was more than 30 µM.
Consider `CC(C)c1cc2c(c(C(C)C)c1CC(=O)N=S(N)(=O)c1ccn(C(F)F)n1)COC2` (single isomer, unassigned) [Example 319, (R) or (S)-N-(amino(1-(difluoromethyl)-1H-pyrazol-3-yl)(oxo)-λ^6-sulfaneylidene)-2-(4,6-diisopropyl-1,3-dihydroisobenzofuran-5-yl)acetamide], for which, under setting [1], the half-inhibitory concentration (IC50) is 5 to 30 µM.
As to `CC(C)c1cc2c(c(C(C)C)c1CC(=O)N=S(N)(=O)c1ccn(C(F)F)n1)COC2` (single isomer, unassigned) [Example 320, (S) or (R)-N-(amino(1-(difluoromethyl)-1H-pyrazol-3-yl)(oxo)-λ^6-sulfaneylidene)-2-(4,6-diisopropyl-1,3-dihydroisobenzofuran-5-yl)acetamide], under setting [2], the IC50 was more than 30 µM.
With `CC(C)c1cc2c(c(C(C)C)c1CC(=O)N=S(N)(=O)c1sc(C(C)(C)O)cc1F)COC2` (single isomer, unassigned) [Example 321, (R) or (S)-N-(amino (3-fluoro-5-(2-hydroxypropan-2-yl)thiophen-2-yl)(oxo)-λ^6-sulfaneylidene)-2-(4,6-diisopropyl-1,3-dihydroisobenzofuran-5-yl)acetamide], the IC50 (Table B1, class symbols) lay in the range of 0.04 to 0.2 µM.
